Here are results for 9 molecules from ChEMBL document CHEMBL5036333, “Cryptoyunnanones A-H, Complex Flavanones from Cryptocarya yunnanensis” (J Nat Prod, 2021).

Usually IC50 stands for the point on the concentration scale where inhibition reaches its midpoint.

What all share (type): functional, cell-based
One test concerns PC-3. In words: Cytotoxicity against human PC-3 cells assessed as cell growth inhibition measured after 48 hrs by MTT assay. Conditions: PC-3, 48 h. In general terms: Tetrazolium dyes change colour on reduction, which living cells bring about.
Another test relates to A549. In words: Cytotoxicity against human A549 cells assessed as cell growth inhibition measured after 48 hrs by MTT assay. Conditions: A549, 48 h.
For a further test, the system named is MDA-MB-231. In words: Cytotoxicity against human MDA-MB-231 cells assessed as cell growth inhibition measured after 48 hrs by MTT assay. Conditions: MDA-MB-231, 48 h.
The next test concerns HCT-116. Description: Cytotoxicity against human HCT-116 cells assessed as cell growth inhibition measured after 48 hrs by MTT assay. The note with it: HCT-116, 48 h.

Structures can show the parent of a compound that is named as a salt. A value given as a limit tells only on which side of the number the result lay.

Regarding `O=C1C=CC[C@H](C[C@@H]2C[C@@H]3C[C@@](CCc4ccccc4)(Oc4cc(O)c5c(c43)O[C@H](c3ccccc3)CC5=O)O2)O1`, the IC50 in the test with PC-3 was 7.2 µM; with A549, above 10 µM; in the test with MDA-MB-231 it was 8.6 µM; in the test with HCT-116 it was 6.4 µM.

With `COc1cccc2c1C(=O)c1c(O)c3c(c(O)c1C2=O)C[C@@](O)(C(=O)CO)C[C@@H]3O[C@H]1C[C@H](N)[C@H](O)[C@H](C)O1` [DOXORUBICIN HYDROCHLORIDE], the concentration for half-maximal inhibition (IC50) with PC-3 and in the test on MDA-MB-231 was 0.2 µM each time.

Take `O=C1C=CC[C@H](C[C@@H]2C[C@@H]3C[C@@](/C=C/c4ccccc4)(Oc4cc(O)c5c(c43)O[C@H](c3ccccc3)CC5=O)O2)O1`: the IC50 with PC-3 is 7.8 µM; in the test on A549 it was above 10 µM; in the test with MDA-MB-231 it was 9.1 µM; with HCT-116 it was 8.1 µM.

Take `O=C1C=CC[C@H](C[C@@H]2C[C@@H]3C[C@@](CCc4ccccc4)(Oc4cc(O)c5c(c43)O[C@@H](c3ccccc3)CC5=O)O2)O1`: the IC50 in the test with PC-3 is 7.2 µM; in the test with A549, above 10 µM; in the test with MDA-MB-231, 8.5 µM; in the test with HCT-116 it was 6.9 µM.

Take `COC(=O)CCC[C@@H]1C[C@@H]2C[C@@](/C=C/c3ccccc3)(Oc3cc(O)c4c(c32)O[C@@H](c2ccccc2)CC4=O)O1`: the half-inhibitory concentration (IC50) with PC-3, in the test on A549, in the test on MDA-MB-231 and with HCT-116 was above 10 µM in each case.

Regarding `O=C(O)CCC[C@@H]1C[C@@H]2C[C@@](/C=C/c3ccccc3)(Oc3cc(O)c4c(c32)O[C@@H](c2ccccc2)CC4=O)O1`, the IC50 with PC-3, with A549, with MDA-MB-231 and in the test with HCT-116 was above 10 µM in each case.

On to `O=C1C=CC[C@H](C[C@@H]2C[C@@H]3C[C@@](/C=C/c4ccccc4)(Oc4cc(O)c5c(c43)O[C@@H](c3ccccc3)CC5=O)O2)O1`, for which the IC50 is 7.6 µM with PC-3, above 10 µM with A549, 9.1 µM with MDA-MB-231 and 9 µM in the test on HCT-116.

In the case of `O=C(O)CCC[C@@H]1C[C@@H]2C[C@@](/C=C/c3ccccc3)(Oc3cc(O)c4c(c32)O[C@H](c2ccccc2)CC4=O)O1`, the half-inhibitory concentration (IC50) in the test with PC-3, with A549, in the test with MDA-MB-231 and in the test on HCT-116 was above 10 µM in each case.

Regarding `COC(=O)CCC[C@@H]1C[C@@H]2C[C@@](/C=C/c3ccccc3)(Oc3cc(O)c4c(c32)O[C@H](c2ccccc2)CC4=O)O1`, the half-inhibitory concentration (IC50) in the test with PC-3, with A549, in the test with MDA-MB-231 and in the test with HCT-116 was above 10 µM each time.
